Source: patent US12599672B2, “KRAS proteolysis targeting chimeras” (PAQ Therapeutics Inc., priority 2023, dated 2026)

How the values were obtained:
KRAS G12D = target: T1, KRAS G12D (Homo sapiens, UniProt P01116, G12D); assay: KRAS G12D HiBit assay; format: cell-based; details: AsPc-1-KRAS (G12D)-HiBit-KI cell, compound treatment for 24 hours; for DC50: absolute DC50
T1 construct: AsPc-1-KRAS (G12D)-HiBit-KI cell (Pharmaron); host or cells: AsPc-1-KRAS (G12D)-HiBit-KI cells (HiBiT knock-in at the endogenous KRAS locus)
Outline: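 HiBiT luminescence, detected by adding lytic buffer, substrate and LgBiT protein, served as the KRAS G12D read-out. Compounds, serially diluted 3-fold over 10 points from 0.3 mM DMSO stock, were on cells for 24 h; percent inhibition normalized to cells given 0.1% DMSO only.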

KRAS G12V = target: T2, KRAS G12V (Homo sapiens, UniProt P01116, G12V); assay: KRAS G12V HiBit assay; format: cell-based; details: SW620-KRAS (G12V)-HiBit-KI cells, compound treatment for 24 hours, class symbols
T2 construct: SW620-KRAS (G12V)-HiBit-KI cell (Pharmaron); host or cells: SW620-KRAS (G12V)-HiBit-KI cells (HiBiT knock-in at the endogenous KRAS locus)
Outline: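 Luminescence from lytic Nano-Glo HiBiT detection with LgBiT read KRAS G12V levels after 24 h compound exposure. Dilutions were 10-point, 3-fold, from a 0.3 mM DMSO stock. Degradation activity was normalised to cells given 0.1% DMSO alone.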

[1] = numeric bounds given in place of class symbols

T2 sequence (P01116 1-188 isoform P01116-2 G12V): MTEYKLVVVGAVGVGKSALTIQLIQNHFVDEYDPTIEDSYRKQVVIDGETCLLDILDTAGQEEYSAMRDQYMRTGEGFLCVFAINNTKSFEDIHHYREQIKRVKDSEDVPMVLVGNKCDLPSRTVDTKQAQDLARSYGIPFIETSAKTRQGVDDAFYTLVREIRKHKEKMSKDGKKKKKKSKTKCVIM
T1 sequence (P01116 1-188 isoform P01116-2 G12D): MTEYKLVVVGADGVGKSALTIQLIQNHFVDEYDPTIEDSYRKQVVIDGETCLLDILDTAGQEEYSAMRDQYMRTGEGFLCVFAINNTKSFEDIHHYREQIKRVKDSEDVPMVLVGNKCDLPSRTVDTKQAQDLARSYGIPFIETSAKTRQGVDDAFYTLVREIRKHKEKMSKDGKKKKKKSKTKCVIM

SMILES	DC50 (KRAS G12D; class symbols)	DC50 (KRAS G12V)	DC50 (KRAS G12D; [1])	Dmax (KRAS G12D; class symbols)
C#Cc1c(F)ccc2cc(O)cc(-c3ncc4c(N5CCC[C@@](C)(O)C5)nc(OCC5(CN6CCC(CN7CCC(c8cccc9c8n(C)c(=O)n9C8CCC(=O)NC8=O)CC7)CC6)CC5)nc4c3F)c12 (stereo partly shown) [Compound 65]	< 100 nM	> 100 nM		
C#Cc1c(F)ccc2cccc(-c3ncc4c(N5CCC[C@@](C)(O)C5)nc(OC[C@@]56CCCN5[C@H](COC(=O)N5CCC(C7CCN(c8ccc9c(c8)n(C)c(=O)n9C8CCC(=O)NC8=O)CC7)CC5)CC6)nc4c3F)c12 (stereo partly shown) [Compound 152]		> 100 nM	> 100 nM	
CCc1c(F)ccc2cc(O)cc(-c3ncc4c(N5CCC[C@@](C)(O)C5)nc(OC[C@@]56CCCN5C(COCCCN5CCC(c7ccc8c(c7)n(C)c(=O)n8C7CCC(=O)NC7=O)CC5)CC6)nc4c3F)c12 (stereo partly drawn) [Compound 490, 3-(5-(1-(3-(((7aS)-7a-(((7-(8-ethyl-7-fluoro-3-hydroxynaphthalen-1-yl)-8-fluoro-4-((R)-3-hydroxy-3-methylpiperidin-1-yl)pyrido[4,3-d]pyrimidin-2-yl)oxy)methyl)hexahydro-1H-pyrrolizin-3-yl)methoxy)propyl)piperidin-4-yl)-3-methyl-2-oxo-2,3-dihydro-1H-benzo[d]imidazol-1-yl)piperidine-2,6-dione]		> 100 nM	> 100 nM	
CCc1c(F)ccc2cc(O)cc(-c3ncc4c(N5CCC[C@@](C)(O)C5)nc(OC[C@@]56CCCN5[C@H](COC(=O)N5CCC7(CC5)CN(C5CCN(c8ccc9c(c8)n(C)c(=O)n9C8CCC(=O)NC8=O)CC5)C7)CC6)nc4c3F)c12 (stereo partly drawn) [Compound 463, ((3S,7aS)-7a-(((7-(8-ethyl-7-fluoro-3-hydroxynaphthalen-1-yl)-8-fluoro-4-((R)-3-hydroxy-3-methylpiperidin-1-yl)pyrido[4,3-d]pyrimidin-2-yl)oxy)methyl)hexahydro-1H-pyrrolizin-3-yl)methyl 2-(1-(1-(2,6-dioxopiperidin-3-yl)-3-methyl-2-oxo-2,3-dihydro-1H-benzo[d]imidazol-5-yl)piperidin-4-yl)-2,7-diazaspiro[3.5]nonane-7-carboxylate]	< 100 nM	< 10 nM		
CCc1c(F)ccc2cc(O)cc(-c3ncc4c(N5CCC[C@@](C)(O)C5)nc(OC[C@@]56CCCN5[C@H](CN5CCC(OCCCc7ccc8c(c7)n(C)c(=O)n8C7CCC(=O)NC7=O)CC5)CC6)nc4c3F)c12 (stereo partly drawn) [Compound 486, 3-(5-(3-((1-(((3S,7aS)-7a-(((7-(8-ethyl-7-fluoro-3-hydroxynaphthalen-1-yl)-8-fluoro-4-((R)-3-hydroxy-3-methylpiperidin-1-yl)pyrido[4,3-d]pyrimidin-2-yl)oxy)methyl)hexahydro-1H-pyrrolizin-3-yl)methyl)piperidin-4-yl)oxy)propyl)-3-methyl-2-oxo-2,3-dihydro-1H-benzo[d]imidazol-1-yl)piperidine-2,6-dione]		> 100 nM	> 100 nM	
C#Cc1c(F)ccc2cc(O)cc(-c3ncc4c(N5CCC[C@@](C)(O)C5)nc(OCC5(CN6CC7(C6)CN(c6ccc8c(c6)n(C)c(=O)n8C6CCC(=O)NC6=O)C7)CC5)nc4c3F)c12 (stereo partly shown) [Compound 51]	< 100 nM	> 100 nM		
C#Cc1c(F)ccc2cccc(-c3ncc4c(N5CCC[C@@](C)(O)C5)nc(OCC5(CN6CCN(C7CCN(c8ccc9c(c8)n(C)c(=O)n9C8CCC(=O)NC8=O)CC7)CC6)CC5)nc4c3F)c12 (stereo partly shown) [Compound 53]	> 300 nM	> 100 nM		
C#Cc1c(F)ccc2cccc(-c3ncc4c(N5CCC[C@@](C)(O)C5)nc(OCC5(CN6CCC(N7CCC(c8ccc9c(C%10CCC(=O)NC%10=O)nn(C)c9c8)CC7)CC6)CC5)nc4c3F)c12 (stereo partly shown) [Compound 57]	< 100 nM	> 100 nM		
CCc1c(F)ccc2cc(O)cc(-c3ncc4c(N5CCC[C@@](C)(O)C5)nc(OC[C@@]56CCCN5[C@H](COC(=O)N5CCC(CN7CC8(CC(c9ccc%10c(c9)n(C)c(=O)n%10C9CCC(=O)NC9=O)C8)C7)CC5)CC6)nc4c3F)c12 (stereo partly drawn) [Compound 366, ((3S,7aS)-7a-(((7-(8-ethyl-7-fluoro-3-hydroxynaphthalen-1-yl)-8-fluoro-4-((R)-3-hydroxy-3-methylpiperidin-1-yl)pyrido[4,3-d]pyrimidin-2-yl)oxy)methyl)hexahydro-1H-pyrrolizin-3-yl)methyl 4-((6-(1-(2,6-dioxopiperidin-3-yl)-3-methyl-2-oxo-2,3-dihydro-1H-benzo[d]imidazol-5-yl)-2-azaspiro[3.3]heptan-2-yl)methyl)piperidine-1-carboxylate]	< 100 nM	10 to 100 nM		
CCc1c(F)ccc2cc(O)cc(-c3ncc4c(N5CCC[C@@](C)(O)C5)nc(OC[C@@]56CCCN5[C@H](COC(=O)N5CCC(N7CC8(CC(c9ccc%10c(c9)n(C)c(=O)n%10C9CCC(=O)NC9=O)C8)C7)CC5)CC6)nc4c3F)c12 (stereo partly drawn) [Compound 365, ((3S,7aS)-7a-(((7-(8-ethyl-7-fluoro-3-hydroxynaphthalen-1-yl)-8-fluoro-4-((R)-3-hydroxy-3-methylpiperidin-1-yl)pyrido[4,3-d]pyrimidin-2-yl)oxy)methyl)hexahydro-1H-pyrrolizin-3-yl)methyl 4-(6-(1-(2,6-dioxopiperidin-3-yl)-3-methyl-2-oxo-2,3-dihydro-1H-benzo[d]imidazol-5-yl)-2-azaspiro[3.3]heptan-2-yl)piperidine-1-carboxylate]	< 100 nM	< 10 nM		
CCc1c(F)ccc2cc(O)cc(-c3ccc4c(N5CCC[C@@](C)(O)C5)nc(OCC56CCCN5C(COC(=O)N5CCC(CN7CCC(c8ccc9c(c8)n(C)c(=O)n9C8CCC(=O)NC8=O)CC7)CC5)CC6)nc4c3F)c12 (stereo partly drawn) [Compound 304, (7a-(((7-(8-ethyl-7-fluoro-3-hydroxynaphthalen-1-yl)-8-fluoro-4-((R)-3-hydroxy-3-methylpiperidin-1-yl)quinazolin-2-yl)oxy)methyl)hexahydro-1H-pyrrolizin-3-yl)methyl 4-((4-(1-(2,6-dioxopiperidin-3-yl)-3-methyl-2-oxo-2,3-dihydro-1H-benzo[d]imidazol-5-yl)piperidin-1-yl)methyl)piperidine-1-carboxylate]		> 100 nM	> 100 nM	
Cn1c(=O)n(C2CCC(=O)NC2=O)c2ccc(C3CCN(C4CC5(CCN(C(=O)OC[C@@H]6CC[C@]7(COc8nc(N9CCC[C@@](C)(O)C9)c9cnc(-c%10cc(O)cc%11cccc(Cl)c%10%11)c(F)c9n8)CCCN67)CC5)C4)CC3)cc21 (stereo partly drawn) [Compound 338, ((3S,7aS)-7a-(((7-(8-chloro-3-hydroxynaphthalen-1-yl)-8-fluoro-4-((R)-3-hydroxy-3-methylpiperidin-1-yl)pyrido[4,3-d]pyrimidin-2-yl)oxy)methyl)hexahydro-1H-pyrrolizin-3-yl)methyl 2-(4-(1-(2,6-dioxopiperidin-3-yl)-3-methyl-2-oxo-2,3-dihydro-1H-benzo[d]imidazol-5-yl)piperidin-1-yl)-7-azaspiro[3.5]nonane-7-carboxylate]	< 100 nM	< 10 nM		
CCc1c(F)ccc2cc(O)cc(-c3ncc4c(N5CCC[C@@](C)(O)C5)nc(OC[C@@]56CCCN5[C@H](COC(=O)N5CCC(N7CCC(Oc8ccc9c(c8)n(C)c(=O)n9C8CCC(=O)NC8=O)CC7)CC5)CC6)nc4c3F)c12 (stereo partly drawn) [Compound 439, ((3S,7aS)-7a-(((7-(8-ethyl-7-fluoro-3-hydroxynaphthalen-1-yl)-8-fluoro-4-((R)-3-hydroxy-3-methylpiperidin-1-yl)pyrido[4,3-d]pyrimidin-2-yl)oxy)methyl)hexahydro-1H-pyrrolizin-3-yl)methyl 4-((1-(2,6-dioxopiperidin-3-yl)-3-methyl-2-oxo-2,3-dihydro-1H-benzo[d]imidazol-5-yl)oxy)-[1,4′-bipiperidine]-1′-carboxylate]	< 100 nM	< 10 nM		
CCc1c(F)ccc2cccc(-c3ncc4c(N5CCC[C@@](C)(O)C5)nc(OC[C@@]56CCCN5[C@H](COC(=O)NCCOCCOCCOCCOc5ccc7c(c5)n(C)c(=O)n7C5CCC(=O)NC5=O)CC6)nc4c3F)c12 (stereo partly drawn) [Compound 105, ((3S,7aS)-7a-(((7-(8-ethyl-7-fluoronaphthalen-1-yl)-8-fluoro-4-((R)-3-hydroxy-3-methylpiperidin-1-yl)pyrido[4,3-d]pyrimidin-2-yl)oxy)methyl)hexahydro-1H-pyrrolizin-3-yl)methyl (2-(2-(2-(2-((1-(2,6-dioxopiperidin-3-yl)-3-methyl-2-oxo-2,3-dihydro-1H-benzo[d]imidazol-5-yl)oxy)ethoxy)ethoxy)ethoxy)ethyl) carbamate]	> 300 nM	> 100 nM		15 to 50%
Cn1c(=O)n(C2CCC(=O)NC2=O)c2cccc(C3CCN(CC4CCN(C(=O)CN5CCN(c6nccc(-c7noc([C@@]8(C)CCCc9sc(N)c(C#N)c98)n7)n6)CC5)CC4)CC3)c21 (stereo partly shown) [Compound 222]	> 300 nM	> 100 nM		
